Measurements taken from ChEMBL document CHEMBL4616654, “Irpexine, an Isoindolinone Alkaloid Produced by Coculture of Endophytic Fungi, Irpex lacteus and Phaeosphaeria oryzae” (J Nat Prod, 2020).
Activity calls are given as the source filed them.

Tests used:
Bacillus cereus = assay: Antimicrobial activity against Bacillus cereus at 50 uM; assay type: functional, organism-based
Escherichia coli = assay: Antimicrobial activity against Escherichia coli at 50 uM; assay type: functional, organism-based
Candida albicans = assay: Antifungal activity against Candida albicans at 50 uM; assay type: functional, organism-based
HeLa = assay: Cytotoxicity against human HeLa cells at 50 uM; assay type: functional, cell-based

Measured: Activity

CC(C)=CCc1ccc(O)c(C2c3c(O)cc(C(=O)O)cc3C(=O)N2CCO)c1O (stereo not drawn)
inactive: all assays above

O=c1c2cc3c(CO)cc4cc(O)cc(O)c4c3oc-2cc2cc(O)cc(O)c12
inactive: all assays above
